The NIST ThermoML archive (doi:10.1016/j.jct.2016.10.009)

Conditions: Liquid, Vibrating tube method

CC(C)OC(C)C [diisopropyl ether]
mass density [kg/m3]
Conditions	293.15 K	298.15 K	313.15 K	333.15 K	353.19 K	373.24 K	393.28 K
100 kPa	723.5	718.3	702.4	680.5	–	–	–
1000 kPa	724.6	719.6	703.8	682.1	659.5	635.6	609.5
5000 kPa	729.4	724.5	709.4	688.9	667.6	645.5	622.1
10000 kPa	734.9	730.2	715.8	696.4	676.5	656.1	635
15000 kPa	740	735.6	721.7	703.2	684.4	665.3	645.8
20000 kPa	744.8	740.5	727.2	709.4	691.5	673.5	655.2
25000 kPa	749.4	745.2	732.1	715.1	698	680.8	663.5
30000 kPa	753.7	749.6	737.1	720.5	704	687.6	671.1
35000 kPa	757.7	753.7	741.6	725.6	709.7	693.8	677.9
40000 kPa	761.6	757.8	745.9	730.3	714.8	699.6	684.3
45000 kPa	765.3	761.6	750	734.8	719.7	705	690.2
50000 kPa	768.9	765.2	753.9	739.1	724.6	710.1	695.8
55000 kPa	772.4	768.8	757.7	743.1	728.9	714.9	701.1
60000 kPa	775.7	772.2	761.3	747.1	733.2	719.5	705.9
65000 kPa	778.9	775.4	764.8	750.9	737.2	723.9	710.6
70000 kPa	782	778.6	768.1	754.4	741.1	728.1	715.2
80000 kPa	787.9	784.6	774.4	761.3	748.4	735.9	723.5
90000 kPa	793.5	790.3	780.5	767.7	755.4	743.2	731.3
100000 kPa	798.8	795.7	786.1	773.7	761.6	750	738.4
110000 kPa	803.9	800.8	791.4	779.4	767.8	756.3	745.3
120000 kPa	808.7	805.6	796.5	784.7	773.4	762.3	751.4
130000 kPa	813.2	810.3	801.4	789.9	778.8	768	757.4
140000 kPa	817.6	814.6	806	794.8	784	773.3	763.1

CCC(C)O (configuration not stated) [butan-2-ol]
mass density [kg/m3]
Conditions	293.15 K	298.15 K	313.15 K	333.15 K	353.19 K	373.24 K	393.28 K
100 kPa	806.7	802.6	789.6	770.8	750.3	–	–
1000 kPa	807.4	803.3	790.3	771.8	751.4	729.1	704.8
5000 kPa	810.4	806.4	793.7	775.7	756	734.5	711.3
10000 kPa	814	810.1	797.8	780.3	761.3	740.8	718.8
15000 kPa	817.4	813.7	801.6	784.7	766.4	746.6	725.6
20000 kPa	820.7	817	805.3	788.9	771	751.9	731.7
25000 kPa	823.9	820.2	808.6	792.7	775.4	757	737.4
30000 kPa	826.9	823.4	812.1	796.4	779.5	761.6	742.7
35000 kPa	829.8	826.4	815.3	800	783.5	766.1	747.8
40000 kPa	832.7	829.2	818.4	803.5	787.2	770.3	752.5
45000 kPa	835.4	832	821.3	806.6	790.8	774.4	757
50000 kPa	838.1	834.7	824.3	809.8	794.4	778.1	761.2
55000 kPa	840.6	837.4	827.1	812.8	797.7	781.8	765.4
60000 kPa	843.2	839.9	829.8	815.8	801	785.3	769.2
65000 kPa	845.6	842.4	832.5	818.7	804.1	788.8	772.9
70000 kPa	848	844.8	835	821.4	807.2	792.1	776.6
80000 kPa	852.6	849.5	839.9	826.8	812.9	798.4	783.4
90000 kPa	857.1	854.1	844.7	831.9	818.3	804.3	789.8
100000 kPa	861.2	858.3	849.1	836.7	823.5	809.8	795.8
110000 kPa	865.3	862.4	853.5	841.3	828.5	815.1	801.5
120000 kPa	869.2	866.3	857.6	845.6	833.1	820.1	806.8
130000 kPa	873	870.1	861.5	849.9	837.6	824.9	811.9
140000 kPa	876.6	873.9	865.4	853.9	842	829.5	816.8
